Among the test systems are COLO 205 colon; DU-145 prostate; SF-268 CNS; OVCAR-4 ovarian; IGROV1 ovarian; MOLT-4 leukemia; HT29 colon; UACC-257 melanoma; SK-MEL-28 melanoma; HOP-62 NSCLC.
What all share (assay): inhibition of tumour cell growth, NCI panel, 48 h

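Grown in 96-well plates, cells were treated for 48 hours with each compound at five concentrations. Insufficient inhibition: endpoint recorded as highest concentration tested. GI50 is the concentration that inhibits growth by half. TGI is the concentration that stops growth completely.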 A value given as a limit tells only on which side of the number the result lay.

As to `Cc1cc2ccccc2n1CC(=O)N1CCCC1`, the TGI in the experiment on COLO 205 colon, in the experiment with DU-145 prostate, in the experiment with SF-268 CNS, in the experiment with OVCAR-4 ovarian, in the experiment on IGROV1 ovarian and in the experiment on MOLT-4 leukemia was more than 100 µM in each case. Also, the TGI in the experiment with HT29 colon, in the experiment with UACC-257 melanoma, with SK-MEL-28 melanoma and in the experiment on HOP-62 NSCLC was more than 100 µM in each case.
In the case of `Cc1ccc(C)c(COCCOCn2cc(Br)c(N)nc2=O)c1`, the TGI with COLO 205 colon, in the experiment on DU-145 prostate, with SF-268 CNS, with IGROV1 ovarian, in the experiment on MOLT-4 leukemia and in the experiment with UACC-257 melanoma was more than 100 µM each time. In addition, the TGI in the experiment with SK-MEL-28 melanoma and in the experiment on HOP-62 NSCLC was more than 100 µM in each case.
Consider `O=C(NC1(C(=O)NNc2nnc(-c3ccccc3)c(-c3ccccc3)n2)C(c2ccccc2)C(c2ccccc2)=NN1c1ccccc1)c1ccccc1` (stereo not given), for which the TGI with COLO 205 colon, in the experiment with DU-145 prostate, with SF-268 CNS, in the experiment with OVCAR-4 ovarian, with MOLT-4 leukemia and in the experiment on HT29 colon was more than 100 µM each time. Besides, the TGI in the experiment on UACC-257 melanoma and in the experiment with HOP-62 NSCLC was more than 100 µM in each case.
With `CCOC(=O)c1c2c(n(-c3ccc(OC)cc3)c1C)C(=O)C(=O)c1ccccc1-2`, the TGI in the experiment on COLO 205 colon is 5.31 µM; with DU-145 prostate, 3.06 µM; in the experiment on SF-268 CNS, 3.76 µM; in the experiment on OVCAR-4 ovarian, 3.44 µM; in the experiment with IGROV1 ovarian it was 12.7 µM; in the experiment on MOLT-4 leukemia, more than 100 µM. Also, the TGI was more than 22.7 µM with HT29 colon, 1.11 µM with UACC-257 melanoma, 3.89 µM in the experiment on SK-MEL-28 melanoma and 3.46 µM in the experiment on HOP-62 NSCLC. In the experiment with MOLT-4 leukemia, the GI50 is 1.66 µM.
In the case of `O=c1c2ccccc2n2nnc3ccc(NCCCNCCNCCCNc4ccc5nnn6c7ccccc7c(=O)c4c56)c1c32`, the TGI in the experiment with COLO 205 colon was more than 50 µM; with DU-145 prostate, more than 50 µM; in the experiment on SF-268 CNS it was more than 26.6 µM; in the experiment with OVCAR-4 ovarian, 21 µM; in the experiment on IGROV1 ovarian, 8.58 µM; with MOLT-4 leukemia it was more than 21.2 µM. For the same compound, the TGI is 1.52 µM with HT29 colon, more than 50 µM with UACC-257 melanoma, more than 39.3 µM in the experiment with SK-MEL-28 melanoma and 12.3 µM with HOP-62 NSCLC.
As for `COc1ccc(/C=C(\C(=C/c2ccc(OC)cc2)[N+](=O)[O-])[N+](=O)[O-])cc1`, the TGI with COLO 205 colon was 21.6 µM; with DU-145 prostate it was 24.6 µM; with SF-268 CNS it was 20.8 µM; in the experiment with OVCAR-4 ovarian it was 27.1 µM; in the experiment on IGROV1 ovarian, 15.4 µM; in the experiment with MOLT-4 leukemia, more than 70.4 µM. Also, the TGI with HT29 colon was determined as 11.1 µM; in the experiment on UACC-257 melanoma, 17.1 µM; in the experiment on SK-MEL-28 melanoma, 6.76 µM; in the experiment with HOP-62 NSCLC, 21.2 µM.
As for `CCOP(=O)(OCC)/C(=C\N1C(=O)CC(=O)NC1=S)C(=O)OC`, the TGI in the experiment on COLO 205 colon, in the experiment with DU-145 prostate, in the experiment on SF-268 CNS, with OVCAR-4 ovarian, in the experiment on IGROV1 ovarian and with MOLT-4 leukemia was more than 100 µM throughout. Also, the TGI in the experiment on HT29 colon, in the experiment with UACC-257 melanoma, in the experiment on SK-MEL-28 melanoma and with HOP-62 NSCLC was more than 100 µM each time.
As to `O=C1CCC2(CC1CCSc1ccccc1)OCCO2` (stereo not given), the TGI in the experiment with COLO 205 colon, in the experiment with DU-145 prostate, in the experiment with SF-268 CNS, with OVCAR-4 ovarian, in the experiment with IGROV1 ovarian and with MOLT-4 leukemia was more than 100 µM in each case. In addition, the TGI in the experiment with HT29 colon, with UACC-257 melanoma, in the experiment with SK-MEL-28 melanoma and in the experiment on HOP-62 NSCLC was more than 100 µM in each case.
For `CN1C/C(=C\c2ccc(Cl)cc2)C(=O)/C(=C/c2ccc(Cl)cc2)C1`, the TGI in the experiment with COLO 205 colon is 5.62 µM; in the experiment with DU-145 prostate, more than 100 µM; in the experiment with SF-268 CNS, more than 100 µM; in the experiment with OVCAR-4 ovarian, more than 65.9 µM; in the experiment with IGROV1 ovarian, more than 100 µM; in the experiment on HT29 colon, 0.824 µM. For the same compound, the TGI in the experiment on UACC-257 melanoma is 2.44 µM; with SK-MEL-28 melanoma, more than 100 µM; in the experiment with HOP-62 NSCLC it was more than 28.5 µM.
Turning to `C=CC(C)(C)N[C@@H](C(=O)N1CCC[C@H]1c1nc(-c2nc(C(=O)OCC=C(C)C)c(C)o2)c(C)o1)C(C)C`, the TGI is 52.1 µM in the experiment with COLO 205 colon; 34 µM with DU-145 prostate; 46.9 µM in the experiment with SF-268 CNS; 71.4 µM in the experiment on OVCAR-4 ovarian; more than 100 µM in the experiment with IGROV1 ovarian; 36.9 µM in the experiment on MOLT-4 leukemia. Also, the TGI came out at 46.1 µM in the experiment with HT29 colon, 38.4 µM in the experiment on UACC-257 melanoma, 38.2 µM in the experiment with SK-MEL-28 melanoma and 51.7 µM with HOP-62 NSCLC.
In the case of `Cc1cn(CC2=NCCCN2)c(=O)[nH]c1=O`, the TGI with COLO 205 colon, in the experiment with DU-145 prostate, in the experiment with SF-268 CNS, in the experiment with IGROV1 ovarian, in the experiment on MOLT-4 leukemia and in the experiment on HT29 colon was more than 100 µM each time. Further, the TGI in the experiment on UACC-257 melanoma, with SK-MEL-28 melanoma and in the experiment on HOP-62 NSCLC was more than 100 µM each time.
Regarding `CC1(C)[C@@H](Cn2cnc3c(=O)[nH]c(N)nc32)CC[C@@]1(C)CO`, the TGI in the experiment on DU-145 prostate, in the experiment with SF-268 CNS, in the experiment on OVCAR-4 ovarian, with MOLT-4 leukemia, in the experiment with UACC-257 melanoma and with SK-MEL-28 melanoma was more than 100 µM throughout. In the experiment with HOP-62 NSCLC, this compound gave a TGI of more than 100 µM.
Regarding `CCCn1c(=O)c2ccccc2[n+]2c(-c3ccc([N+](=O)[O-])cc3)csc12`, the TGI in the experiment on COLO 205 colon is more than 100 µM; in the experiment on DU-145 prostate, more than 100 µM; in the experiment on SF-268 CNS, more than 100 µM; in the experiment with OVCAR-4 ovarian, more than 100 µM; in the experiment on IGROV1 ovarian, more than 100 µM; with MOLT-4 leukemia, 79.9 µM. Moreover, the TGI is more than 100 µM in the experiment on HT29 colon, more than 100 µM in the experiment with UACC-257 melanoma and 80.8 µM in the experiment on HOP-62 NSCLC.
Turning to `O=C(Nc1nnc(-c2ccccc2)o1)C(SC(=S)N1CCOCC1)c1ccccc1` (stereo not given), the TGI is more than 100 µM with COLO 205 colon; more than 100 µM in the experiment with DU-145 prostate; more than 100 µM in the experiment on OVCAR-4 ovarian; more than 100 µM in the experiment on IGROV1 ovarian; 83.1 µM in the experiment with MOLT-4 leukemia; more than 100 µM with HT29 colon. Further, the TGI in the experiment on UACC-257 melanoma, in the experiment on SK-MEL-28 melanoma and with HOP-62 NSCLC was more than 100 µM in each case.

These data come from PubChem BioAssay (NCI).
